These results are taken from patent publication US11648291B2, “Method of using PRD, PRD-S TAD, ZF7 peptide or mixture thereof to inhibit cellular response to inflammatory stimuli or treat cytokine-storm-mediated diseases” (GUANGZHOU MEDICAL UNIVERSITY, priority 2020, dated 2023).

Assay [1] concerns TNFα-induced IL-8 expression in HCT-8 cells. The experiment in a line: TNFα/IL-1β-induced IL-8 expression in HCT-8 cells (IL-8 ELISA). In kind it is cell-based, human. The settings on record: for expression of IL-8 by the peptides themselves: no stimulus; for TNFα- or IL-1β-induced IL-8 expression: HCT-8, with or without the transfection agent, 1 μg/ml, TNFα 2 ng/ml or IL-1β 1 ng/ml, more peptide needed without transfection. The procedure:
The indicated amount of the peptides was transfected into HCT-8 as described in the method. The transfected cells were stimulated with TNFα (4 hours after peptide transfection) for 24 hours. IL-8 expression was measured by ELISA. The results are the representative of 3 similar experiments.
(§1) HCT-8 cells were transfected with the peptides or just treated with them without transfection (1 μg/ml) and stimulated with TNFα (2 ng/ml) or IL-1-β (1 ng/ml) for 24 hours. PMBCs were treated with the indicated amount of each peptide (no transfection) and stimulated with TNFα (2 ng/ml) for 24 hours. IL-8 expression was measured by ELISA. The results are the representative of 2 similar experiments.
HCT-8 cells were stimulated with TNFα (2 ng/ml) with the indicated amount of PRD-S peptide for 24 hours. IL-8 expression was measured by ELISA.
Human PBMCs and THP-1 cells were cultured in RPMI-1640 while FLS and HCT-8 cells in DMEM, supplemented with 10% fetal bovine serum and maintained in a humidified incubator at 37° C. with 5% CO2 in air.
(§2) IL-8 LEISA kit was purchased from ThermoFisher and ELISA was performed according to the manufacturer's instruction.
Peptides were transfected into the cells using Pierce Protein Transfection Reagent Kit™ according to the manufacturer's instruction. The Pierce Reagent in methanol was pipetted into a tube and the solvent was evaporated in the hood. Peptides were diluted in PBS and mixed with the dried Pierce Reagent. The peptides/Reagent complex was added to the cells in serum-free medium. After 4 hours, the medium containing serum was added to the cells and the cells were used for experiments.
(§3) In order to test the hypotheses that the PRD and TAD peptides inhibit the response to pro-inflammatory stimuli such as TNFα, IL-1β, and LPS, the peptides were synthesized and transfected into HCT-8 cells using a protein transfection reagent (Pierce). […] Next, we tested whether they can inhibit the expression of genes induced by TNFα, IL-1β, and LPS in human PBMCs. Both peptides indeed inhibited the expression of IL-6, IL-1β, IL-8, and arginase induced by TNFα, IL-1β, or LPS (FIG. 4B). Since both peptides are highly hydrophobic, we tested whether they can penetrate cells. Indeed, both peptides inhibited TNFα- or IL-1β-induced IL-8 expression with or without the transfection agent in HCT-8 cells, although it took more peptides to produce the similar level of inhibition (FIG. 4C, left panel). […] We tested a random peptide sequence ([…], SEQ ID NO:41) as a control and it had no effect on the cellular response to TNFα, IL-1β, and LPS (data not shown).
Based on the sequence analysis of the YAP1 mutants (FIG. 2A), we tested whether the shortest PRD peptide (M1) inhibits the TNFα response. We named this peptide as PRD-S(small).
(§4) Recent findings identified the ZF7 (zinc finger domain 7) as the key domain for A20 to suppress inflammation (FIG. 6A). We hypothesized that ZF7 peptide inhibit the TNFα response just as PRD and TAD peptides do. […] Next, we tested whether ZF7 inhibits LPS response in vivo. We injected mice with a high dose of LPS (200 μg/mouse) or LPS+ZF7 (200 μg/mouse) and collected the sera after 3 hours. […] In order to tract ZF7 peptide inside cells, biotin was attached to the N-terminus to ZF7 peptide.

Assay [2] deals with gene expression induced by TNFα, LPS, or IL-1β in human PBMCs. Description: Gene expression induced by TNFα, LPS or IL-1β in human PBMCs (ELISA, LegendPlex). It is filed as cell-based. The settings on record: transfected PRD 1 μg or TAD 0.5 μg, TNFα 2 ng/ml, LPS 50 ng/ml or IL-1β 2 ng/ml, 24 hours. As to the method:
PBMCs were transfected with either PRD (1 μg) or TAD (0.5 μg) as described in the method. The transfected cells were stimulated with TNFα (2 ng/ml), LPS (50 ng/ml), or IL-1β (2 ng/ml), 4 hours after peptide transfection, for 24 hours. IL-8 expression was measured by ELISA and IL-6, IL-1β, and arginase levels were measured by flow cytometry using LegendPlex as described in the method. The results are the representative of 3 similar experiments.
as §1, §2
All steps of PBMC preparation were carried out at room temperature. The blood from the same donor was pooled and mixed 1:1 with pre-warmed (room temperature) 1×PBS (without Ca^2+ or Mg^2+). […]
To simultaneously quantify the concentration of the soluble inflammatory cytokines and chemokines, the cell culture supernatant was analyzed by using the bead-based multiplex LEGENDplex™ (Biolegend) according to the manufacturer's instruction. […]

Assay [3] relates to TNFα response in HCT-8 cells (C, A20 KD, YAP KD). The experiment in a line: TNFα response (IL-8 ELISA) in control, A20 KD and YAP KD HCT-8 cells. In kind it is cell-based, human. Particulars: TNFα 2 ng/ml overnight. The procedure:
HCT-8 cells (C, A20 KD, YAP KD) were treated with PRD, TAD, or ZF7 peptide (1 μg/ml) and stimulated with TNFα (2 ng/ml) overnight. IL-8 levels in the medium were measured by ELISA. The results are the representative of 2 similar experiments. IL-8 LEISA kit was purchased from ThermoFisher and ELISA was performed according to the manufacturer's instruction. Next, we investigated how PRD, TAD, and ZF7 peptides inhibit the TNFα response. The PRD, TAD, and ZF7 peptides have the same effect as either YAP9 OE (over-expression) or A20 OE, respectively. Since YAP9 OE or A20 OE is futile in the absence of the other (FIGS. 5B and 5C), PRD or TAD peptide should also require the presence of A20 while ZF7 peptide the presence of YAP9. Indeed, our data supported this notion. When both YAP9 and A20 are present (C), all 3 peptides inhibited the TNFα response.

For assay [4], the system named is cellular response to TNFα, IL-1β, and LPS. The experiment in a line: Cellular response to TNFα, IL-1β and LPS, data not shown (control peptide, biotin-tagged peptides). It is filed as cell-based. Particulars: for effect of biotin on the activity of the peptide: biotin attached to the N-terminus.
Source text: as §3, §4

In assay [5] the test system is LPS response in mice. Description: LPS response in mice: serum cytokines and chemokines by LegendPlex (Table 1). In kind it is in vivo, C57BL/6 mice. As to the method: as §4
Table.1 ZF7 peptide inhibits the LPS response in mice. C57BL/6 mice (n=2) were injected intraperitoneally with LPS (200 μg/mouse) or LPS (200 μg/mouse)+ZF7 peptide (200 μg/mouse) and the sera were collected after 3 hours. The cytokines and chemokines in the sera were measured by LegendPlex according to the manufacturer's instruction. The number represents pg/ml.

In assay [6] the test system is LPS-induced mortality. Description: LPS-induced mortality in mice. It is filed as in vivo, mice (C57B/6). The settings on record: mice n=5, LPS 200 μg + ZF7 300 μg i.p., observed 7 days; LPS control group 60% mortality. As to the method:
Mice (8-week old, C57B/6, n=5) were injected with LPS (200 μg) or LPS (200 μg)+ZF7 (300 μg) in 200 μl PBS intraperitoneally.
Since ZF7 inhibited LPS-induced cytokine production in mice (Table 1), we next tested whether ZF7 peptide can protect mice from LPS-induced mortality.

[7] abbreviates: HCT-8, peptides transfected, TNFα 24 hours, ELISA.
The mark [8] stands for this setting: control HCT-8 (both YAP9 and A20 present), peptide 1 μg/ml.
Setting [9] is: serum 3 hours after i.p. LPS 200 μg/mouse + ZF7 200 μg/mouse, one line per mouse (n=2).

“And” between values parts separate entries of the source, which are not always exact repeats. Identical values can stand only once. A value given as a limit tells only on which side of the number the result lay.

Consider “RQAMRININPSTANSPKCQE (listed as Homo sapiens) [TAD]”, for which the “relative potency in suppressing TNFα-induced IL-8 expression” value in assay [1] (HCT-8, peptides transfected) is “more potent than PRD peptide”. In assay [1] (setting [7]), the “TNFα-induced IL-8 expression” value is reported as “suppressed”. Also, in assay [1] (HCT-8, peptides transfected), the “expression of IL-8 by the peptides themselves” value is recorded as “did not affect”. Also, the “TNFα- or IL-1β-induced IL-8 expression” value in assay [1] (24 hours) is listed as “inhibited”. Moreover, the “expression of IL-6, IL-1β, IL-8, and arginase induced by TNFα, IL-1β, or LPS” value in assay [2] is reported as “inhibited”. Besides, the “TNFα response (IL-8)” value is “significantly less effective” in assay [3] (A20 KD HCT-8, peptide 1 μg/ml); “retained their full inhibitory capacity” in assay [3] (YAP KD HCT-8, peptide 1 μg/ml); “inhibited” in assay [3] (setting [8]). Besides, the “effect of biotin on the activity of the peptide” value (“effect of biotin” below) in assay [4] is given as “did not affect the activity”.

Consider “ARNDCEQGHILKMFPSTWYV [random peptide sequence, reference compound]”, for which the “effect on the cellular response to TNFα, IL-1β, and LPS” value in assay [4] (control peptide) is given as “no effect”.

For “QPPGQGPPSGPGQPA (listed as Homo sapiens) [PRD-S]”, the “TNFα-induced IL-8 expression” value in assay [1] (HCT-8, PRD-S without transfection, TNFα 2 ng/ml, 24 hours) was “inhibited TNFα-induced IL-8 expression in a dose-response manner”.

For the sequence “GQPPSQPPQGQGPPSGPGQPAPAATQAAPQ (listed as Homo sapiens) [PRD]”, the “TNFα-induced IL-8 expression” value in assay [1] (setting [7]) is on record as “suppressed”. In addition, in assay [1] (HCT-8, peptides transfected), the “expression of IL-8 by the peptides themselves” value is listed as “did not affect”. Besides, the “TNFα- or IL-1β-induced IL-8 expression” value in assay [1] (24 hours) is “inhibited”. The “expression of IL-6, IL-1β, IL-8, and arginase induced by TNFα, IL-1β, or LPS” value in assay [2] is recorded as “inhibited”. Also, the “TNFα response (IL-8)” value in assay [3] (A20 KD HCT-8, peptide 1 μg/ml) is “significantly less effective”; in assay [3] (YAP KD HCT-8, peptide 1 μg/ml), “retained their full inhibitory capacity”; in assay [3] (setting [8]) it was “inhibited”. The “effect of biotin” value in assay [4] is “did not affect the activity”.

With “PPKQRCRAPACDHFGNAKCNGYCNECYQFKQMYG (listed as Homo sapiens) [ZF7]”, the “TNFα response (IL-8 ELISA)” value in assay [1] (HCT-8, without transfection, TNFα 2 ng/ml overnight) is “significantly inhibited”. Besides, the “TNFα response (IL-8)” value in assay [3] (A20 KD HCT-8, peptide 1 μg/ml) is recorded as “retained its full inhibitory capacity”. Also, in assay [3] (YAP KD HCT-8, peptide 1 μg/ml), the “TNFα response (IL-8)” value is reported as “ineffective”. Moreover, in assay [3] (setting [8]), the “TNFα response (IL-8)” value is listed as “inhibited”. Besides, in assay [4], the “effect of biotin” value is reported as “did not affect the activity”. The “all the cytokines and chemokines measured in sera” value in assay [5] (mice, LPS 200 μg/mouse + ZF7 200 μg/mouse, sera after 3 hours) was “almost completely inhibited”. Further, in assay [5] (setting [9]), the CCL2 is 238.13 pg/mL and 222.5 pg/mL; the GMCSF is <18.38 pg/mL; the IFNβ is <4.36 pg/mL; the IFNγ is <0.53 pg/mL and 87.58 pg/mL. For the same sequence, in assay [5] (setting [9]), the IL1-β is <4.33 pg/mL and 14.99 pg/mL; the IL-1α was <26.12 pg/mL and 57.24 pg/mL; the IL-6 was 4142.37 pg/mL and 1570.50 pg/mL; the IL-10 was <9.48 pg/mL and 65.31 pg/mL. For the same sequence, in assay [5] (setting [9]), the IL-17A was <4.47 pg/mL and 129.84 pg/mL; the IL-27 was <8.56 pg/mL and 137.96 pg/mL; the TNFα is <4.10 pg/mL and 44.45 pg/mL. Besides, the LPS-induced mortality result in assay [6] is recorded as “no mortality”.
